The text below walks through data of patent publication US20240208992A1, “MACROCYCLES AS CFTR MODULATORS” (Idorsia Pharmaceuticals Ltd, priority 2021, published 2024).

Molecules are shown by their SMILES. pEC50: −log10 of the molar value.

The target of this assay is human F508del-CFTR (Homo sapiens, UniProt P13569, DEL508-508). Put plainly: F508del-CFTR cell surface expression (corrector activity), DiscoveRx ß-galactosidase complementation chemiluminescence assay in recombinant U2OS cell line.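 Further: U2OS cells co-expressing ProLink-tagged F508del-CFTR and a membrane-anchored enzyme acceptor, where more surface CFTR restores β-galactosidase activity measured by chemiluminescence.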 The conditions noted are these: EC50, F508del-CFTR cell surface expression, U2OS cell line, 16h compound incubation; geomean values.
Sequence of human F508del-CFTR (P13569 with tags, fused parts or gaps DEL508-508): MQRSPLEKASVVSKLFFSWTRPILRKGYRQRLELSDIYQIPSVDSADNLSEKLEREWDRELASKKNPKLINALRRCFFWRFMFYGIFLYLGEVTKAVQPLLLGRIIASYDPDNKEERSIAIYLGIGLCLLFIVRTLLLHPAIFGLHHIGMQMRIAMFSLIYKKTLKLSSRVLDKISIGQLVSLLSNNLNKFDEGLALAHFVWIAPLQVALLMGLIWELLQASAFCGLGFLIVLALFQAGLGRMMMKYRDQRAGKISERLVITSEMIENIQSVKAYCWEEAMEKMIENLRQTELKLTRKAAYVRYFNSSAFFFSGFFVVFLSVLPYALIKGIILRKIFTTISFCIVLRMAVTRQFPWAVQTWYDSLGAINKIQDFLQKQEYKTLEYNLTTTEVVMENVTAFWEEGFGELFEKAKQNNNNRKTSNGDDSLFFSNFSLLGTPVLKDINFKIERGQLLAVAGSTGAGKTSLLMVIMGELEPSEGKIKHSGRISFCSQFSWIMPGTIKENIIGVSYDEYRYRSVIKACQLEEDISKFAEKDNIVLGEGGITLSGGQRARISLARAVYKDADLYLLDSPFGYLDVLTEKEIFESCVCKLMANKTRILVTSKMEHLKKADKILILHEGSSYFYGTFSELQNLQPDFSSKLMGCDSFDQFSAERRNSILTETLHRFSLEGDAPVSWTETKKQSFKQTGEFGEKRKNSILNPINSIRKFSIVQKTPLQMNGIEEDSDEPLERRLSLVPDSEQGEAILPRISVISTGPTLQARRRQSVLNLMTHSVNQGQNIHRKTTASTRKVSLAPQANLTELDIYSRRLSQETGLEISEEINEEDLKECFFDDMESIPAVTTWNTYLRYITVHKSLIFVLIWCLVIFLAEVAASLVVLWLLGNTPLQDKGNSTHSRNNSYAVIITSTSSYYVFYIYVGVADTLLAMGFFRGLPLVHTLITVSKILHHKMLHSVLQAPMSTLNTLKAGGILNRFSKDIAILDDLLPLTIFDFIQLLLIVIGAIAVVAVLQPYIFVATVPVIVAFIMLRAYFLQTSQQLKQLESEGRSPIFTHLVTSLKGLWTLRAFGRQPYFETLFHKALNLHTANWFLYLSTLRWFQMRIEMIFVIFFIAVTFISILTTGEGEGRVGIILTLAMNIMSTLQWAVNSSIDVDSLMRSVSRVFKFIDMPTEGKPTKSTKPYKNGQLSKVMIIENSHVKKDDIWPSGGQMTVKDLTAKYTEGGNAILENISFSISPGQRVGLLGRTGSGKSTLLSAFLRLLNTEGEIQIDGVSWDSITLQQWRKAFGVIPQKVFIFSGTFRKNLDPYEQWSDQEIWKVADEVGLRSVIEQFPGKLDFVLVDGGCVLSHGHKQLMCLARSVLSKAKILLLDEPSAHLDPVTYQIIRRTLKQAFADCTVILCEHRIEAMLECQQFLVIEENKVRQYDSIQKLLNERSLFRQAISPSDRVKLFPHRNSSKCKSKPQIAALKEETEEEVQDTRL
As for `CN1C(=O)C[C@@H](C(=O)NCCc2ccc3c(c2)OCO3)NC(=O)c2c(ccc3ccccc23)OC[C@@H](Cc2ccccc2)NC(=O)CN(CCC2CCCCC2)C(=O)[C@@H]1CC1CCCC1` (mixture of isomers) [Example 290, (3RS,7S,13R)-N-(2-(benzo[d][1,3]dioxol-5-yl)ethyl)-13-benzyl-9-(2-cyclohexylethyl)-7-(cyclopentylmethyl)-6-methyl-1,5,8,11-tetraoxo-1,2,3,4,5,6,7,8,9,10,11,12,13,14-tetradecahydronaphtho[1,2-p][1]oxa[4,7,10,14]tetraazacycloheptadecine-3-carboxamide], the pEC50 is 6.73. For `CN1C(=O)C[C@@H](C(=O)NCCc2ccc3c(c2)OCO3)NC(=O)c2c(ccc3ccccc23)OC[C@@H](Cc2ccccc2)NC(=O)CN(CCC2CCCCC2)C(=O)[C@@H]1CC1CCC1` (mixture of isomers) [Example 292, (3RS,7S,13R)-N-(2-(benzo[d][1,3]dioxol-5-yl)ethyl)-13-benzyl-7-(cyclobutylmethyl)-9-(2-cyclohexylethyl)-6-methyl-1,5,8,11-tetraoxo-1,2,3,4,5,6,7,8,9,10,11,12,13,14-tetradecahydronaphtho[1,2-p][1]oxa[4,7,10,14]tetraazacycloheptadecine-3-carboxamide], the pEC50 was 6.94. With `COc1cccc(CCNC(=O)[C@@H]2CC(=O)N(C)[C@@H](CC3CCCC3)C(=O)N(C[C@@H]3CCCCO3)CC(=O)N[C@H](Cc3ccccc3)COc3ccc4ccccc4c3C(=O)N2)c1` (mixture of isomers) [Example 293, (3RS,7S,13R)-13-benzyl-7-(cyclopentylmethyl)-N-(3-methoxyphenethyl)-6-methyl-1,5,8,11-tetraoxo-9-(((S)-tetrahydro-2H-pyran-2-yl)methyl)-1,2,3,4,5,6,7,8,9,10,11,12,13,14-tetradecahydronaphtho[1,2-p][1]oxa[4,7,10,14]tetraazacycloheptadecine-3-carboxamide], the pEC50 was 6.47.

Turning to `COc1cccc(CCNC(=O)[C@@H]2CC(=O)N(C)[C@@H](CC3CCCC3)C(=O)N(C[C@@H]3CCCCO3)CC(=O)N[C@H](Cc3ccccc3)COc3ccc4ccccc4c3C(=O)N2)c1` (mixture of isomers) [Example 295, (3RS,7S,13R)-13-benzyl-7-(cyclopentylmethyl)-N-(3-methoxyphenethyl)-6-methyl-1,5,8,11-tetraoxo-9-(((R)-tetrahydro-2H-pyran-2-yl)methyl)-1,2,3,4,5,6,7,8,9,10,11,12,13,14-tetradecahydronaphtho[1,2-p][1]oxa[4,7,10,14]tetraazacycloheptadecine-3-carboxamide], the pEC50 was 6.69. As for `COc1cccc(CCNC(=O)[C@@H]2CC(=O)N(C)[C@@H](CC3CCCCC3)C(=O)N(C[C@H]3CCCCO3)CC(=O)N[C@H](Cc3ccccc3)COc3ccc4ccccc4c3C(=O)N2)c1` (mixture of isomers) [Example 296, (3RS,7S,13R)-13-benzyl-7-(cyclohexylmethyl)-N-(3-methoxyphenethyl)-6-methyl-1,5,8,11-tetraoxo-9-(((R)-tetrahydro-2H-pyran-2-yl)methyl)-1,2,3,4,5,6,7,8,9,10,11,12,13,14-tetradecahydronaphtho[1,2-p][1]oxa[4,7,10,14]tetraazacycloheptadecine-3-carboxamide], the figure is 6.80; as for `COc1cccc(CCNC(=O)[C@@H]2CC(=O)N(C)[C@@H](CC3CCCC3)C(=O)N(CCC3CCCCC3)CC(=O)N[C@H](Cc3ccccc3)COc3ccc4ccccc4c3C(=O)N2)c1` (mixture of isomers) [Example 300, (3RS,7S,13R)-13-benzyl-9-(2-cyclohexylethyl)-7-(cyclopentylmethyl)-N-(3-methoxyphenethyl)-6-methyl-1,5,8,11-tetraoxo-1,2,3,4,5,6,7,8,9,10,11,12,13,14-tetradecahydronaphtho[1,2-p][1]oxa[4,7,10,14]tetraazacycloheptadecine-3-carboxamide], 6.99.

A word on the pEC50: it is the negative decadic logarithm of the EC50, by convention in mol/L.
